Data set [1] concerns Sarcoma cells. The data set can be described thus: Chemotherapeutic effect on subcutaneously inoculated sarcoma cells in ICR mice (tumor weight, i.p. once a day for 5 days). Type of data set: in vivo, female ICR mice. Conditions: for Inhibition rate / Inhibition rate (%) (entry: toxic): once a day for 5 days; for Inhibition rate: tumor weight 5 days after the administration; for Inhibition rate (%) (entry: toxic): 100 mg/kg/day i.p., group of five female ICR mice; for ED30: denominator of MTD/ED30; for ED30 / MTD: doses of the table in mg/kg/day; for ED30 / MTD / Therapeutic index (MTD/ED30): i.p. once a day for 5 days; for MTD: numerator of MTD/ED30; for Therapeutic index (MTD/ED30): ratio MTD/ED30. As to the method: Chemotherapeutic effect of the organic platinum complex (I) of this invention was investigated as follows.
Sarcoma cells (1.5×10^6 cells) were inoculated subcutaneously at inguinal region of a group of five female mice (ICR mice, five week age). Twenty four hours after the inoculation, a solution of test compound was intraperitoneally administered to the mice once a day for 5 days. The weight of tumor in the mice was measured 5 days after the administration.

Data set [2] in a line: Renal function indices (creatinine and urea in blood) in mice. Type of data set: in vivo. Conditions: dose required to induce 100% increase in the life span. An excerpt:
The organic platinum complex of the invention also has advantageous properties such as less toxicity to kidney, remarkedly higher water solubility and is easily transferred into organs in vivo in comparison with known organic platinum complexes.

For `CC(=O)NC1C(=O)[O][Pt]2([NH]C3CCCCC3[NH]2)[O]C1=O` (stereo not drawn) [Compound 1, [2-(acetylamino)malonato](trans-l-1,2-diaminocyclohexane)platinum (II)], the Inhibition rate is recorded as 28.4% in data set [1] (3.12 mg/kg/day i.p.); 36.0% in data set [1] (6.25 mg/kg/day i.p.); 52.3% in data set [1] (12.5 mg/kg/day i.p.); 64.8% in data set [1] (25 mg/kg/day i.p.); 89.4% in data set [1] (50 mg/kg/day i.p.). In addition, the “Inhibition rate (%) (entry: toxic)” value in data set [1] is on record as “Toxic (5/5)”. The ED30 in data set [1] is on record as 3.6. Moreover, the MTD in data set [1] is recorded as 50. For the same compound, the “influence on indices of renal functions such as the concentration of creatinine and ueas in blood” value in data set [2] is given as “no influences”.
Take `COCCOCC(=O)NC1C(=O)[O][Pt-2]2([NH2+]C3CCCCC3[NH2+]2)[O]C1=O` (stereo not drawn) [Compound 2, [2-[[(methoxyethoxy)acetyl]amino]malonato] (trans-l-1,2-diaminocyclohexane)platinum (II)]: the Inhibition rate in data set [1] (6.25 mg/kg/day i.p.) worked out at 17.8%. This compound also registered an Inhibition rate in data set [1] (12.5 mg/kg/day i.p.) of 57.6%. The compound further came in with an Inhibition rate in data set [1] (25 mg/kg/day i.p.) of 65.4%. In data set [1] (50 mg/kg/day i.p.), this compound showed an Inhibition rate of 80.2%. For the same compound, in data set [1], the “Inhibition rate (%) (entry: toxic)” value was “Toxic (4/5)”, the ED30 is reported as 6.7, the MTD is reported as 50 and the “Therapeutic index (MTD/ED30)” value turned out to be 7.5.
`CC(=O)NC1(C)C(=O)[O][Pt-2]2([NH2+]C3CCCCC3[NH2+]2)[O]C1=O` (stereo not drawn) [Compound 3, [2-(acetylamino)-2-methylmalonato] (trans-l-1,2-diaminocyclohexane) platinum (II)]: the Inhibition rate in data set [1] (6.25 mg/kg/day i.p.) stood at 26.4%; in data set [1] (12.5 mg/kg/day i.p.) it was 49.7%; in data set [1] (25 mg/kg/day i.p.) it was 63.5%; in data set [1] (50 mg/kg/day i.p.), 80.7%. Also, the “Inhibition rate (%) (entry: toxic)” value in data set [1] was “Toxic (5/5)”. This compound also came in with an ED30 in data set [1] of 7.0. The compound further had an MTD in data set [1] of 50. The “Therapeutic index (MTD/ED30)” value in data set [1] came to 7.1.
